Patent US10344019B2 (priority 2010, dated 2019)
Read-outs that look alike come from different tables or passages of the source.

Assays:
Type in all cases: cell-based
[1] = tested on: HCV 2a Rluc cells (NS5A chimeric genotype 2a JFH-1 replicon with genotype 2a J6 strain NS5A gene, M31 present); test: HCV replicon reporter assay, genotype 2a J6 (M31 present); conditions: Hepatitis C virus, read-out: 2a J6
Description: Evaluation of cell-based anti-HCV activity: Antiviral potency (EC50) was determined using a Renilla luciferase (RLuc)-based HCV replicon reporter assay. To perform the assay for genotype 1 and 2a JFH-1, HCV 1b RLuc cells (harboring a dicistronic genotype 1b Con1 replicon that encodes a RLuc reporter), or HCV 1a RLuc cells (harboring a dicistronic genotype 1a H77 replicon that encodes a RLuc reporter), or HCV 2a JFH-1 Rluc cells (harboring a dicistronic genotype 2a JFH-1 replicon that encodes a RLuc reporter) were dispensed into 384-well plates. To perform the assay for genotype 2a (with M31 present) or 2b, HCV 2a Rluc or 2b Rluc cells (both with M31 present) harboring a dicistronic NS5A chimeric genotype 2a JFH-1 replicon that encodes a RLuc reporter and either genotype 2a J6 strain NS5A gene or genotype 2b MD2b-1 NS5A gene (based on Los Alamos HCV database isolates, both with M31 present) respectively, were dispensed into 384-well plates. To perform the assay for genotype 3 and 4, HCV 3a RLuc or 4a Rluc cells harboring a dicistronic NS5A chimeric genotype 1b Con1 replicon that encodes a RLuc reporter and either a consensus genotype 3a NS5A gene or genotype 4a NS5A gene (based on Los Alamos HCV database isolates) respectively, were dispensed into 384-well plates. Compounds were re-suspended in DMSO at a concentration of 10 mM and serially diluted in DMSO either manually or using an automated pipeting instrument. Serially diluted compounds were mixed with cell culture media and added to the seeded cells. […] 72 hours later, cells were lysed and Renilla luciferase activity quantified as recommended by the manufacturer (Promega-Madison, Wis.). Non-linear regression was performed to calculate EC50 values.

[2] = tested on: HCV 2a JFH-1 Rluc cells (dicistronic genotype 2a JFH-1 replicon, RLuc reporter); test: microbe, parasite or virus in culture; conditions: Hepatitis C virus, 72 h, genotype 2a JFH-1 replicon, 72 hours, read-out: 2a JFH
Procedure, shortened: (§1)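 Replicons used: genotype 1b Con1, 1a H77, 2a JFH-1, and a 2a JFH-1 chimera with J6-strain NS5A (M31 present), all dicistronic.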

[3] = tested on: HCV 3a RLuc cells (NS5A chimeric genotype 1b Con1 replicon with consensus genotype 3a NS5A gene); test: microbe, parasite or virus in culture; conditions: Hepatitis C virus, genotype 3a NS5A chimeric replicon
Procedure, shortened: (§2)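 Replicon cells stably carrying the listed RLuc-encoding dicistronic replicons were seeded and treated with DMSO serial dilutions of compound (10 mM stocks) diluted into culture medium. After 72 h, cells were lysed and Renilla luciferase activity measured. EC50 was derived by non-linear regression.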

[4] = tested on: HCV 4a Rluc cells (NS5A chimeric genotype 1b Con1 replicon with genotype 4a NS5A gene); test: microbe, parasite or virus in culture; conditions: Hepatitis C virus, read-out: 4a
Procedure, shortened: as §2

[5] = tested on: HCV 1b RLuc cells (dicistronic genotype 1b Con1 replicon, RLuc reporter); test: microbe, parasite or virus in culture; conditions: Hepatitis C virus, 72 h, read-out: 1b (nM)
Procedure, shortened: as §1

[6] = tested on: HCV 1a RLuc cells (dicistronic genotype 1a H77 replicon, RLuc reporter); test: microbe, parasite or virus in culture; conditions: Hepatitis C virus, 72 h, genotype 1a H77 replicon, 72 hours, read-out: 1a
Procedure, shortened: as §1

Row | SMILES | EC50 [1] [nM] | EC50 ([2]; Table 1) [nM] | EC50 ([3]; read-out: 3a, Table 1) [nM] | EC50 [4] [nM] | EC50 [5] [nM] | EC50 ([6]; Table 1) [nM] | EC50 ([2]; Table 2) [nM] | EC50 ([3]; read-out: 3a, Table 2) [nM] | EC50 ([6]; Table 2) [nM]
1 | COC(=O)N[C@H](C(=O)N1CCC[C@H]1c1ncc(-c2cc3c4c(c2)OCc2cc(-c5cnc([C@@H]6CCCN6C(=O)[C@@H](NC(=O)OC)C6CCOCC6)[nH]5)cc(c2-4)OC3)[nH]1)C(C)C [Example 25b] | 1 to 44 | 0.001 to 0.999 | 0.001 to 0.99 | 0.001 to 0.99 | 0.176 | 0.001 to 0.999 | – | – | –
2 | COC(=O)N[C@H](C(=O)N1CCC[C@H]1c1nc2ccc3cc(-c4ccc(-c5cnc([C@@H]6[C@H]7CC[C@H](C7)N6C(=O)[C@@H](NC(=O)OC)C(C)C)[nH]5)cc4)ccc3c2[nH]1)C(C)C [Example 53] | > 44 | – | – | 0.001 to 0.99 | 0.01 | – | 0.001 to 0.999 | 0.001 to 0.99 | 0.001 to 0.999
3 | COC(=O)N[C@H](C(=O)N1CCC[C@H]1c1nc2ccc3cc(-c4ccc(-c5cnc([C@@H]6[C@H]7CC[C@H](C7)N6C(=O)[C@H](NC(=O)OC)c6ccccc6)[nH]5)cc4)ccc3c2[nH]1)C(C)C [Example 54] | > 44 | – | – | 0.001 to 0.99 | 0.014 | – | 0.001 to 0.999 | 0.001 to 0.99 | 0.001 to 0.999
4 | COC(=O)N[C@H](C(=O)N1CCC[C@H]1c1nc2ccc3cc(-c4ccc(-c5cnc([C@@H]6[C@H]7CC[C@H](C7)N6C(=O)[C@@H](NC(=O)OC)[C@@H](C)OC)[nH]5)cc4)ccc3c2[nH]1)C(C)C [Example 55] | > 44 | – | – | 0.001 to 0.99 | 0.015 | – | 0.001 to 0.999 | 0.001 to 0.99 | 0.001 to 0.999
5 | COC(=O)NC(C(=O)N1CCC[C@H]1c1ncc(-c2ccc(-c3ccc4c(ccc5nc([C@@H]6[C@H]7CC[C@H](C7)N6C(=O)[C@@H](NC(=O)OC)C(C)C)[nH]c54)c3)cc2)[nH]1)C(C)C (stereo partly drawn) [Example 65] | > 44 | – | – | 0.001 to 0.99 | 0.015 | – | 0.001 to 0.999 | 0.001 to 0.99 | 0.001 to 0.999
6 | COC(=O)NC(C(=O)N1CCC[C@H]1c1ncc(-c2ccc(-c3ccc4c(ccc5nc([C@@H]6[C@H]7CC[C@H](C7)N6C(=O)[C@@H](NC(=O)OC)[C@@H](C)OC)[nH]c54)c3)cc2)[nH]1)C(C)C (stereo partly drawn) [Example 66] | > 44 | – | – | 0.001 to 0.99 | 0.022 | – | 0.001 to 0.999 | 0.001 to 0.99 | 0.001 to 0.999
7 | COC(=O)NC(C(=O)N1CCC[C@H]1c1ncc(-c2ccc(-c3ccc4c(ccc5nc([C@@H]6[C@H]7CC[C@H](C7)N6C(=O)[C@@H](NC(=O)OC)C(C)C)[nH]c54)c3)cc2)[nH]1)[C@@H](C)OC (stereo partly drawn) [Example 68] | 1 to 44 | – | – | 0.001 to 0.99 | 0.025 | – | 0.001 to 0.999 | 0.001 to 0.99 | 0.001 to 0.999
8 | COC(=O)N[C@H](C(=O)N1CCC[C@H]1c1nc2ccc3cc(-c4ccc(-c5cnc([C@@H]6CC7(CN6C(=O)[C@H](C(C)C)C(C)C(=O)OC)OCCO7)[nH]5)cc4)ccc3c2[nH]1)[C@@H](C)OC (stereo partly drawn) [Example 80] | > 44 | – | – | 0.001 to 0.99 | 0.072 | – | 0.001 to 0.999 | 0.001 to 0.99 | 0.001 to 0.999
9 | COC(=O)N[C@H](C(=O)N1CCC[C@H]1c1nc2ccc3cc(-c4ccc5c(c4)CCc4nc([C@@H]6CC7(CN6C(=O)[C@@H](NC(=O)OC)[C@@H](C)OC)OCCO7)[nH]c4-5)ccc3c2[nH]1)C(C)C [Example 83] | > 44 | – | – | 0.001 to 0.99 | 0.094 | – | 0.001 to 0.999 | 1 to 4.99 | 0.001 to 0.999
